How the values were obtained:
Assay in all cases: KINOMEscan competition binding
Details in all cases: compound 10.0 µM
SRMS (human) = SRMS (human) (UniProt Q9H3Y6)
MAPK14 (human) = MAPK14 (human) (UniProt Q16539)
CAMK1G (human) = CAMK1G (human) (UniProt Q96NX5)
ANKK1 (human) = ANKK1 (human) (UniProt Q8NFD2)
CDK5 (human) = CDK5 (human) (UniProt Q00535)
FYN (human) = FYN (human) (UniProt P06241)
MAPK10 (human) = MAPK10 (human) (UniProt P53779)
CHUK (human) = CHUK (human) (UniProt O15111)
CaMK1 (human) = CaMK1 (human) (UniProt Q14012)
EPHA8 (human) = EPHA8 (human) (UniProt P29322)
[1] = tested on: KIT (human), P10721 [V559D/T670I]
[2] = tested on: EGFR (human), P00533 [A750P; 747-749 del]
MKNK2 (human) = MKNK2 (human) (UniProt Q9HBH9)
FGFR4 (human) = FGFR4 (human) (UniProt P22455)
TNNI3K (human) = TNNI3K (human) (UniProt Q59H18)
MUSK (human) = MUSK (human) (UniProt O15146)
BMX (human) = BMX (human) (UniProt P51813)
[3] = tested on: EGFR (human), P00533 [752-759 del]
TIE1 (human) = TIE1 (human) (UniProt P35590)
[4] = tested on: RET (human), P07949 [V804M]
MYO3A (human) = MYO3A (human) (UniProt Q8NEV4)
[5] = tested on: ABL1 (human), P00519 [T315I]
FLT4 (human) = FLT4 (human) (UniProt P35916)
ULK3 (human) = ULK3 (human) (UniProt Q6PHR2)
CDK18 (human) = CDK18 (human) (UniProt Q07002)
HCK (human) = HCK (human) (UniProt P08631)
ALK (human) = ALK (human) (UniProt Q9UM73)
SRC (human) = SRC (human) (UniProt P12931)
MAP4K3 (human) = MAP4K3 (human) (UniProt Q8IVH8)
FRK (human) = FRK (human) (UniProt P42685)
TEK (human) = TEK (human) (UniProt Q02763)
[6] = tested on: KIT (human), P10721 [V559D]
CSF1R (human) = CSF1R (human) (UniProt P07333)
CDK16 (human) = CDK16 (human) (UniProt Q00536)
YES1 (human) = YES1 (human) (UniProt P07947)
CDK11B (human) = CDK11B (human) (UniProt P21127)
CDK7 (human) = CDK7 (human) (UniProt P50613)
[7] = target: JAK1 JH1 catalytic (human) (UniProt P23458)
TNIK (human) = TNIK (human) (UniProt Q9UKE5)
PTK2 (human) = PTK2 (human) (UniProt Q05397)
[8] = tested on: EGFR (human), P00533 [747-751 del / S ins]

Chain of CDK5 (human) (Q00535 whole entry, looked up): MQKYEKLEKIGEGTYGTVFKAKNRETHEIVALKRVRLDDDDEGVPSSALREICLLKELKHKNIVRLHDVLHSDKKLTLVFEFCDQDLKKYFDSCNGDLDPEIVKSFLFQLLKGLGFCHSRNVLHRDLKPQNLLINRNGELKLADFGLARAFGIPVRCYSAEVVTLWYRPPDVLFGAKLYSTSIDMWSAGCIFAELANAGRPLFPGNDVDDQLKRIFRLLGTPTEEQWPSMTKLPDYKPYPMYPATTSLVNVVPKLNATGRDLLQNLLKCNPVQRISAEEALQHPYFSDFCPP
Chain of ALK (human) (Q9UM73 whole entry, looked up): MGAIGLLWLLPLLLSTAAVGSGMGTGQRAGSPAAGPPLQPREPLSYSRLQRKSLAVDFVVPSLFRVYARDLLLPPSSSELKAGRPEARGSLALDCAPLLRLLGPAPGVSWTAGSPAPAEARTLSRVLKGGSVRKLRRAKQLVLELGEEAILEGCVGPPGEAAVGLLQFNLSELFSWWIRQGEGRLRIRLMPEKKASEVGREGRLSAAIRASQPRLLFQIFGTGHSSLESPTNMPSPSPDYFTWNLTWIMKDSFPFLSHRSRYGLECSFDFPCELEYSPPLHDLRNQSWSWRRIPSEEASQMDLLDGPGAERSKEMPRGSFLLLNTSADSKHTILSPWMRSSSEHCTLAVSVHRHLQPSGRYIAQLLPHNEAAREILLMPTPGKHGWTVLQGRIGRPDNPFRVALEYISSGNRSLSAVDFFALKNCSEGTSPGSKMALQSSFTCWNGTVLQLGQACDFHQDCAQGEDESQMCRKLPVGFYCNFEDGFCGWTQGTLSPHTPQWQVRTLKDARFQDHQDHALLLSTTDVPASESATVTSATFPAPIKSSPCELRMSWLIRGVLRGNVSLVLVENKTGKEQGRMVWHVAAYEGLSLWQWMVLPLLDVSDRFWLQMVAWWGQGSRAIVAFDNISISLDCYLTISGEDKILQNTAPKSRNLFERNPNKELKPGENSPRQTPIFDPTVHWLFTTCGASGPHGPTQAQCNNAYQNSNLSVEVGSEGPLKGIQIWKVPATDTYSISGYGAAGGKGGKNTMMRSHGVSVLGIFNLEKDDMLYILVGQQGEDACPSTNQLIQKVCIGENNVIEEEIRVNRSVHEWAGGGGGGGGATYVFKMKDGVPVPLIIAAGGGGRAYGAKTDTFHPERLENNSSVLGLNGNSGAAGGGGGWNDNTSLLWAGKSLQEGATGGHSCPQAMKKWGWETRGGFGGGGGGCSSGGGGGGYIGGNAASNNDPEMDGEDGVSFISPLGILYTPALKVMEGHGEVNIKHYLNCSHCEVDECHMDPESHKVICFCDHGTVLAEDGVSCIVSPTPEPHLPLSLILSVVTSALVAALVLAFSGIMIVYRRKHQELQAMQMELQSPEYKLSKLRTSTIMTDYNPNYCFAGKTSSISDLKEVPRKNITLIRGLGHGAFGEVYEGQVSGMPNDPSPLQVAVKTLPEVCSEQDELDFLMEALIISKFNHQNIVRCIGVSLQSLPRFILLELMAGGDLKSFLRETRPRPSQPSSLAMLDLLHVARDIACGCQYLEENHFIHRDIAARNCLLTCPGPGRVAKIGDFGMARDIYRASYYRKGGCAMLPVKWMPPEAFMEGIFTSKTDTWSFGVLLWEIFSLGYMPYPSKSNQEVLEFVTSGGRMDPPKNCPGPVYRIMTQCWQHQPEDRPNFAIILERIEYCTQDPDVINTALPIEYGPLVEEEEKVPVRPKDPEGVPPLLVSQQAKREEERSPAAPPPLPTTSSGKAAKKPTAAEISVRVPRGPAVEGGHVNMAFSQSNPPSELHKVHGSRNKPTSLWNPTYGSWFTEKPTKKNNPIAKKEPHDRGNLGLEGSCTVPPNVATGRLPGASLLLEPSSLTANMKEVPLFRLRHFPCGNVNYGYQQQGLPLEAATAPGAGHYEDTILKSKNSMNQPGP
Chain of ULK3 (human) (Q6PHR2 whole entry, looked up): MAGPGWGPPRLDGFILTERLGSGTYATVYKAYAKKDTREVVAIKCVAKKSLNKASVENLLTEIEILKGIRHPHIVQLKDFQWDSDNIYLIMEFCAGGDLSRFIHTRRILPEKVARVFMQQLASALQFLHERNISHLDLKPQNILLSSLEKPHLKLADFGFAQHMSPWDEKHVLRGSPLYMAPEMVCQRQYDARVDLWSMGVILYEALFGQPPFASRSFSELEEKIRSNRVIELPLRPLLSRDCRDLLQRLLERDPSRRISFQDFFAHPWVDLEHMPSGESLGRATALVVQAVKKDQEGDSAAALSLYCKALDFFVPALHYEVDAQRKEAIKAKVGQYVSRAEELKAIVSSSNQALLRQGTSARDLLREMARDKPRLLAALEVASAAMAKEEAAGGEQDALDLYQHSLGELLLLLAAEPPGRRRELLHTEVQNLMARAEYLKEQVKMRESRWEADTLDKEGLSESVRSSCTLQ
Chain of RET (human), P07949 [V804M] (P07949 whole entry V804M, looked up): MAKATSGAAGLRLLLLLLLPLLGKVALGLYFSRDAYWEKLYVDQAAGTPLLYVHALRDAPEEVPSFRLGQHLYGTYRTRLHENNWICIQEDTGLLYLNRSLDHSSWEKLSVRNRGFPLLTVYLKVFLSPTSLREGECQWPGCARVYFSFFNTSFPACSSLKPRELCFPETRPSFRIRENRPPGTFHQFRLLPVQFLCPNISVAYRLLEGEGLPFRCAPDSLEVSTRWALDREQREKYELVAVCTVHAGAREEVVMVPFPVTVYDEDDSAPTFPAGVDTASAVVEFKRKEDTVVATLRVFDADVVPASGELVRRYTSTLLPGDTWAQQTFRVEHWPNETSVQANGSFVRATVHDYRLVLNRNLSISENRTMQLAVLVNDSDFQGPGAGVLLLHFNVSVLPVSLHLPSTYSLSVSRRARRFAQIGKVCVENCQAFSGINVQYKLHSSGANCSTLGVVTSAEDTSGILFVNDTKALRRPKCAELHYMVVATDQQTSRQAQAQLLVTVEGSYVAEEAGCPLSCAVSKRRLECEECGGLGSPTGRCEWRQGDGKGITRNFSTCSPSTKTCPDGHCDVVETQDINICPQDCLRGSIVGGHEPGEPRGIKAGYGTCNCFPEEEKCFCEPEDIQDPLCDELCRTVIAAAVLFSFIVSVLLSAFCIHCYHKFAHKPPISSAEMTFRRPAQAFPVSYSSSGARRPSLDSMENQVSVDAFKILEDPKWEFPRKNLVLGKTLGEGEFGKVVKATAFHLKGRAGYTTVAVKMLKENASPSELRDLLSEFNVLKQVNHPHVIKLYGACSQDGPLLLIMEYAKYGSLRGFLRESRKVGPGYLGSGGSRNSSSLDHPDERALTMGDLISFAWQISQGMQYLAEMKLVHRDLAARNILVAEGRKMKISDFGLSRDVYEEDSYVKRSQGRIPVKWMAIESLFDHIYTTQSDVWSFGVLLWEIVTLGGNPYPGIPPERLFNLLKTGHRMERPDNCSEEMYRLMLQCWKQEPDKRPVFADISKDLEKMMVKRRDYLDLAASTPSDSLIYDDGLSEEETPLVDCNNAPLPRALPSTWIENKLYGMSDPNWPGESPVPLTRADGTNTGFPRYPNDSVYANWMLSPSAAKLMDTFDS
Chain of KIT (human), P10721 [V559D] (P10721 whole entry V559D, looked up): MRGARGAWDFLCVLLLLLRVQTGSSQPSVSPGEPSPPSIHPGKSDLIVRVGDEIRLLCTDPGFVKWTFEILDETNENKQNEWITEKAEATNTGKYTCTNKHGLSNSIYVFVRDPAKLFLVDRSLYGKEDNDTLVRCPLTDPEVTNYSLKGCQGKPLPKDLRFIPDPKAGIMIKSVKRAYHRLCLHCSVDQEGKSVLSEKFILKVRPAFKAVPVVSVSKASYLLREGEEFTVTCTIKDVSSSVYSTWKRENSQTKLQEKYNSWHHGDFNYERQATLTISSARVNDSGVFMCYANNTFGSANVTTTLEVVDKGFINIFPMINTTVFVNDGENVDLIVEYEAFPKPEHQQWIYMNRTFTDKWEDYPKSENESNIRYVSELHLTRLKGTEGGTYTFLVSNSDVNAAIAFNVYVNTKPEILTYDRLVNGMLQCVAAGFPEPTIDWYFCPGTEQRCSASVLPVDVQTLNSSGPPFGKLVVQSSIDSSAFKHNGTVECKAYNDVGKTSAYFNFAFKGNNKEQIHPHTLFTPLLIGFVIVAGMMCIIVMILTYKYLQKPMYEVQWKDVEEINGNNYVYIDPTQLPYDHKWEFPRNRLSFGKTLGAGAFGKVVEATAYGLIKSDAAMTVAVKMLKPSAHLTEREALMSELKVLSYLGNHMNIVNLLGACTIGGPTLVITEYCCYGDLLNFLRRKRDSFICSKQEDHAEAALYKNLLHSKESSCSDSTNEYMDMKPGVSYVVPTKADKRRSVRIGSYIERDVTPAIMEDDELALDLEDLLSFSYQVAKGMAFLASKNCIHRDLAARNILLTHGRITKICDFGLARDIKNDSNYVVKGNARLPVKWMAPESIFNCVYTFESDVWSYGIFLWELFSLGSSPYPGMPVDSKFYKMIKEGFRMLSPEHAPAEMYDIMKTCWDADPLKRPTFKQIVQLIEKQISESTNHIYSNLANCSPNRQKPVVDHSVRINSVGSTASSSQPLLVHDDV
Chain of CDK7 (human) (P50613 whole entry, looked up): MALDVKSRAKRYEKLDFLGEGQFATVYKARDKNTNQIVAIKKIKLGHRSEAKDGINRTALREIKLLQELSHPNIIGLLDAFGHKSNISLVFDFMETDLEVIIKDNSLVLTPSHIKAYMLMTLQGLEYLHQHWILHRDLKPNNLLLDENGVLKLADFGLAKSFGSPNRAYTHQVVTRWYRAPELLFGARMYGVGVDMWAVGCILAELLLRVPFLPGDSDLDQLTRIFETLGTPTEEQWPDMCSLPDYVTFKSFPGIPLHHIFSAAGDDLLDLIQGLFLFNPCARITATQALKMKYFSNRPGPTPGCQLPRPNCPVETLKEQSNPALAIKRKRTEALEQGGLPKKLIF
Chain of KIT (human), P10721 [V559D/T670I] (P10721 whole entry V559D/T670I, looked up): as the sequence (P10721 whole entry V559D, looked up) above, with T670I counted along it

CCN1CCN(Cc2ccc(NC(=O)c3ccc(C)c(Oc4ccnc5[nH]ccc45)c3)cc2C(F)(F)F)CC1
kinase still bound, per cent of control (SRMS (human)): 4.6% | kinase still bound, per cent of control (MAPK14 (human)): 0% | kinase still bound, per cent of control (CAMK1G (human)): 20% | kinase still bound, per cent of control (ANKK1 (human)): 23% | residual activity (CDK5 (human)): 19% | kinase still bound, per cent of control (FYN (human)): 1.6% | kinase still bound, per cent of control (MAPK10 (human)): 12% | kinase still bound, per cent of control (CHUK (human)): 0.95% | kinase still bound, per cent of control (CaMK1 (human)): 0% | kinase still bound, per cent of control (EPHA8 (human)): 0.1% | kinase still bound, per cent of control [1]: 0.05% | kinase still bound, per cent of control [2]: 1.5% | kinase still bound, per cent of control (MKNK2 (human)): 4.2% | kinase still bound, per cent of control (FGFR4 (human)): 0.45% | kinase still bound, per cent of control (TNNI3K (human)): 4.8% | kinase still bound, per cent of control (MUSK (human)): 0.2% | kinase still bound, per cent of control (BMX (human)): 2.4% | kinase still bound, per cent of control [3]: 4.6% | kinase still bound, per cent of control (TIE1 (human)): 0.95% | kinase still bound, per cent of control [4]: 1% | kinase still bound, per cent of control (MYO3A (human)): 6.4% | kinase still bound, per cent of control [5]: 0% | kinase still bound, per cent of control (FLT4 (human)): 0.2% | kinase still bound, per cent of control (ULK3 (human)): 0.1% | residual activity (CDK18 (human)): 1.8% | kinase still bound, per cent of control (HCK (human)): 0.4% | kinase still bound, per cent of control (ALK (human)): 0.55% | kinase still bound, per cent of control (SRC (human)): 0.2% | kinase still bound, per cent of control (MAP4K3 (human)): 18% | kinase still bound, per cent of control (FRK (human)): 0.7% | kinase still bound, per cent of control (TEK (human)): 0% | kinase still bound, per cent of control [6]: 0% | kinase still bound, per cent of control (CSF1R (human)): 0% | residual activity (CDK16 (human)): 11% | kinase still bound, per cent of control (YES1 (human)): 1.6% | residual activity (CDK11B (human)): 0.35% | residual activity (CDK7 (human)): 2.4% | kinase still bound, per cent of control [7]: 11% | kinase still bound, per cent of control (TNIK (human)): 8.2% | kinase still bound, per cent of control (PTK2 (human)): 23% | kinase still bound, per cent of control [8]: 1.1%

Reference: the kinase profiling compilation of Christmann-Franck et al. (2016)
